Measured values as given in patent US6440903B1, “Substituted 2,4-diamino-1,3,5-triazines as herbicides” (Bayer Aktiengesellschaft, priority 1996, dated 2002).

Tests used:
Assay in all cases: Post-emergence test
Format in all cases: in vivo
Amaranthus = conditions: greenhouse, scored after three weeks
Description: (§1) Post-emergence Test Solvent: 5 parts by weight of acetone Emulsifier: 1 part by weight of alkylaryl polyglycol ether To produce a suitable preparation of active compound, 1 part by weight of active compound is mixed with the stated amount of solvent, the stated amount of emulsifier is added and the concentrate is diluted with water to the desired concentration. Test plants which have a height of 5-15 cm are sprayed with the preparation of active compound such that the particular amounts of active compounds desired are applied per unit area. The concentration of the spray liquor is chosen so that the particular amounts of active compound desired are applied in 1000 l of water/ha. After three weeks, the degree of damage to the plants is scored visually in % damage in comparison to the untreated control. The Figures Denote: 0%=no effect (like untreated control) 100%=total destruction

Chenopodium = conditions: greenhouse, scored after three weeks
Description: as §1

Polygonum = conditions: greenhouse, scored after three weeks
Description: as §1

Setaria = conditions: greenhouse, scored after three weeks
Description: as §1

Viola = conditions: greenhouse, scored after three weeks
Description: as §1

Wheat = conditions: greenhouse, scored after three weeks; for plant injury at 250 g/ha / % damage, Wheat: 250 g of ai./ha
Description: as §1

[1] = Amaranthus, 504 h, 250 g of ai./ha, read-out: % damage, Amaranthus
[2] = Chenopodium, 504 h, 250 g of ai./ha, read-out: % damage, Chenopodium
[3] = Polygonum, 504 h, 250 g of ai./ha, read-out: % damage, Polygonum
[4] = 504 h, 250 g of ai./ha, read-out: % damage, Viola
[5] = Triticum aestivum, 504 h, read-out: % damage, Wheat
[6] = Amaranthus, 504 h, 500 g of ai./ha, read-out: % damage, Amaranthus
[7] = Chenopodium, 504 h, 500 g of ai./ha, read-out: % damage, Chenopodium
[8] = Polygonum, 504 h, 500 g of ai./ha, read-out: % damage, Polygonum
[9] = Setaria, 504 h, 500 g of ai./ha, read-out: % damage, Setaria
[10] = 504 h, 500 g of ai./ha, read-out: % damage, Viola

Q: Which results are given for `CC(=O)Nc1nc(NC(C)c2ccc(Cl)cc2)nc(C(C)Cl)n1` (stereo not shown) [drawing 122]?
A: pest or weed control at 250 g/ha (Amaranthus; [1]): 100%; pest or weed control at 250 g/ha (Chenopodium; [2]): 100%; pest or weed control at 250 g/ha (Polygonum; [3]): 100%; pest or weed control at 250 g/ha (Setaria; Setaria, 504 h, 250 g of ai./ha, read-out: % damage, Setaria): 80%; pest or weed control at 250 g/ha (Viola; [4]): 95%; plant injury at 250 g/ha (Wheat; [5]): 10%

Q: For `CCc1nc(N)nc(NC(C)c2ccc(Cl)cc2)n1` (stereo not shown) [drawing 123], which pest or weed control at 500 g/ha (Amaranthus; [6]) is on record?
A: 100%

Q: And the pest or weed control at 500 g/ha (Chenopodium; [7])?
A: 100%

Q: What about the pest or weed control at 500 g/ha (Polygonum; [8]) of the same molecule?
A: 100%

Q: And the pest or weed control at 500 g/ha (Setaria; [9])?
A: 95%

Q: What about the pest or weed control at 500 g/ha (Viola; [10]) of the same molecule?
A: 100%

Q: For `CC(Nc1nc(N)nc(C(F)C(F)(F)F)n1)c1ccc(Cl)cc1` (stereo not shown) [drawing 124], which “% damage, Amaranthus” value (Amaranthus; 250 g of ai./ha) is on record?
A: 100%

Q: And the “% damage, Chenopodium” value (Chenopodium; 250 g of ai./ha)?
A: 100%

Q: What about the “% damage, Polygonum” value (Polygonum; 250 g of ai./ha) of the same molecule?
A: 95%

Q: And the “% damage, Setaria” value (Setaria; 250 g of ai./ha)?
A: 90%

Q: What about the “% damage, Viola” value (Viola; 250 g of ai./ha) of the same molecule?
A: 95%

Q: What about the “% damage, Wheat” value (Wheat) of the same molecule?
A: 10%

Q: Which results are given for `CC(Cl)c1nc(N)nc(NC(C)c2ccc(Cl)cc2)n1` (stereo not shown) [drawing 125]?
A: % damage, Amaranthus (Amaranthus; 250 g of ai./ha): 100%; % damage, Chenopodium (Chenopodium; 250 g of ai./ha): 95%; % damage, Polygonum (Polygonum; 250 g of ai./ha): 95%; % damage, Setaria (Setaria; 250 g of ai./ha): 80%; % damage, Viola (Viola; 250 g of ai./ha): 95%; % damage, Wheat (Wheat): 10%

Q: Which pest or weed control at 500 g/ha (Amaranthus; [6]) does the source give for `CC(Nc1nc(N)nc(C(C)(Cl)Cl)n1)c1ccc(Cl)cc1` (stereo not shown) [drawing 126] here?
A: 100%

Q: What about the pest or weed control at 500 g/ha (Chenopodium; [7]) of the same molecule?
A: 100%

Q: What about the pest or weed control at 500 g/ha (Polygonum; [8]) of the same molecule?
A: 100%

Q: What about the pest or weed control at 500 g/ha (Setaria; [9]) of the same molecule?
A: 90%

Q: And the pest or weed control at 500 g/ha (Viola; [10])?
A: 100%

Q: And the plant injury at 500 g/ha (Wheat; Triticum aestivum, 504 h, 500 g of ai./ha, read-out: % damage, Wheat)?
A: 10%

Q: `CCc1nc(N)nc(NC(C)c2ccc(Cl)cc2)n1` (stereo not shown) [drawing 127] was tested. Which “% damage, Amaranthus” value (Amaranthus; 500 g of ai./ha) did it give?
A: 100%

Q: And the “% damage, Chenopodium” value (Chenopodium; 500 g of ai./ha)?
A: 100%

Q: What about the “% damage, Polygonum” value (Polygonum; 500 g of ai./ha) of the same molecule?
A: 100%

Q: And the “% damage, Setaria” value (Setaria; 500 g of ai./ha)?
A: 100%

Q: And the “% damage, Viola” value (Viola; 500 g of ai./ha)?
A: 100%

Q: For `COCc1nc(N)nc(NC(C)c2ccc(Cl)cc2)n1` (stereo not shown) [drawing 130], which “% damage, Amaranthus” value (Amaranthus; 250 g of ai./ha) is on record?
A: 100%

Q: And the “% damage, Chenopodium” value (Chenopodium; 250 g of ai./ha)?
A: 100%

Q: What about the “% damage, Polygonum” value (Polygonum; 250 g of ai./ha) of the same molecule?
A: 100%

Q: And the “% damage, Viola” value (Viola; 250 g of ai./ha)?
A: 100%

Q: What about the “% damage, Wheat” value (Wheat) of the same molecule?
A: 10%

Q: `COc1ccc(C(C)Nc2nc(N)nc(C(C)F)n2)cc1` (stereo not shown) [drawing 136] was tested. Which pest or weed control at 250 g/ha (Amaranthus; [1]) did it give?
A: 100%

Q: And the pest or weed control at 250 g/ha (Chenopodium; [2])?
A: 100%

Q: And the pest or weed control at 250 g/ha (Polygonum; [3])?
A: 100%

Q: And the pest or weed control at 250 g/ha (Viola; [4])?
A: 95%

Q: What about the plant injury at 250 g/ha (Wheat; [5]) of the same molecule?
A: 10%

Q: What does the source list for `CCC(Nc1nc(N)nc(C(F)(F)F)n1)c1ccc(Cl)cc1` (stereo not shown) [drawing 139]?
A: pest or weed control at 1000 g/ha (Amaranthus; Amaranthus, 504 h, 1000 g of ai./ha, read-out: % damage, Amaranthus): 100%; pest or weed control at 1000 g/ha (Chenopodium; Chenopodium, 504 h, 1000 g of ai./ha, read-out: % damage, Chenopodium): 100%; pest or weed control at 1000 g/ha (Polygonum; Polygonum, 504 h, 1000 g of ai./ha, read-out: % damage, Polygonum): 100%; pest or weed control at 1000 g/ha (Viola; 504 h, 1000 g of ai./ha, read-out: % damage, Viola): 100%; plant injury at 1000 g/ha (Wheat; Triticum aestivum, 504 h, 1000 g of ai./ha, read-out: % damage, Wheat): 10%
